Data from patent US7049332B2, “HIV inhibiting N-aminoimidazole derivatives” (K. U. Leuven Research & Development, priority 2001, dated 2006).
≈ marks a conversion by molar mass, not a printed value.

Tests used:
HIV-2 (ROD) = assay: Inhibition of HIV-induced cytopathogenic effect in MT-4 cells (MTT), HIV-2; format: cell-based; settings: for IC50: Human immunodeficiency virus 2, MT4; for IC50 / HIV-2 (ROD) IC50: 50% protection against HIV-induced cytopathogenic effect, MT-4 cells, MTT; for HIV-2 (ROD) SI: selectivity index = ratio of CC50 to IC50, HIV-2
Protocol: (§1) A rapid and automated assay procedure was used for the in vitro evaluation of anti-HIV agents. An HTLV-1 transformed T4-cell line MT-4, which was previously shown to be highly susceptible to and permissive for HIV infection, served as the target cell line. Inhibition of the HIV-induced cytopathogenic effect was used as the end point. The viabitlity of both HIV-and mock-infected cells was assessed spectrophotometrically via in situ reduction of 3-(4,5-dimethylthiazol-2-yl)-2,5-diphenyltetrazolium bromide (MTT). The 50% cytotoxic concentration (CC50 in μg/ml) was defined as the concentration of compound that reduced the absorbance of the mock-infected control sample by 50%. The percent protection achieved by the compound in HIV-infected cells was calculated by the following formula:
(§2) [formula] whereby (ODT)HIV is the optical density measured with a given concentration of the test compound in HIV-infected cells; (ODC)HIV is the optical density measured for the control untreated HIV-infected cells; (ODC)MOCK is the optical density measured for the control untreated mock-infected cells; all optical density values were determined at 540 nm. The dose achieving 50% protection according to the above formula was defmed as the 50% inhibitory concentration (IC50 in μg/ml). The ratio of CC50 to IC50 was defined as the selectivity index (SI).
(§3) Cells: MT-4 cells (Miyoshi et al., 1982) were grown and maintained in RPMI 1640 medium supplemented with 10% heat-inactivated fetal calf serum, 2 mM 1-glutamine, 0.1% sodium bicarbonate, and 20 œg of gentamicin per ml.
(§4) Viruses: The HIV-1(NL4.3) strain (Adachi et al., 1986) is a molecular clone obtained from the National Institutes of Health (Bethesda, Md.). The HIV-2(ROD) (Barr,-Sinoussi et al., 1983) stock was obtained from culture supernatant of HIV-2 infected cell lines.

HIV-1 (NL4.3 WT) = assay: Inhibition of HIV-induced cytopathogenic effect in MT-4 cells (MTT), HIV-1; format: cell-based; settings: for IC50: Human immunodeficiency virus 1, MT4; for IC50 / HIV-1 (NL4.3 WT) IC50: 50% protection against HIV-induced cytopathogenic effect, MT-4 cells, MTT; for HIV-1 (NL4.3 WT) SI: selectivity index = ratio of CC50 to IC50, HIV-1
Protocol: as §1, §2, §3, §4

[1] = Cytotoxicity in mock-infected MT-4 cells (MTT); format: cell-based; settings: human; mock-infected MT-4 cells, absorbance reduced by 50%, MTT
Protocol: as §1, with “formula: Examples of inhibition of cell proliferation by particular compounds of formula (I) can be found by looking at the respective CC50 values in the MT-4 cell line. Cells: MT-4 cells (Miyoshi et al., 1982) were grown and maintained in RPMI 1640 medium supplemented with 10% heat-inactivated fetal calf serum, 2 mM […], 0.1% sodium bicarbonate, and 20 œg of gentamicin per ml.” for “formula:”

MT-4 cells = assay: Cytotoxicity in mock-infected MT-4 cells (MTT); format: cell-based
Protocol: as §1, with “formula: Examples of inhibition of cell proliferation by particular compounds of formula (I) can be found by looking at the respective CC50 values in the MT-4 cell line. Cells: MT-4 cells (Miyoshi et al., 1982) were grown and maintained in RPMI 1640 medium supplemented with 10% heat-inactivated fetal calf serum, 2 mM […], 0.1% sodium bicarbonate, and 20 œg of gentamicin per ml.” for “formula:”

Row | Compound | IC50 (HIV-2 (ROD)) [µg/mL] | IC50 (HIV-1 (NL4.3 WT)) [µg/mL] | melting point [°C] | HIV-2 (ROD) IC50 (HIV-2 (ROD)) [µg/mL] | HIV-1 (NL4.3 WT) IC50 (HIV-1 (NL4.3 WT)) [µg/mL] | HIV-2 (ROD) SI (HIV-2 (ROD)) | HIV-1 (NL4.3 WT) SI (HIV-1 (NL4.3 WT)) | CC50 [1] [µg/mL] | cytotoxicity CC50 (MT-4 cells) [µg/mL]
1 | Cc1[nH]c(=S)n(Nc2cccc(F)c2)c1-c1ccccc1 [Compound 9.18, 2,3-Dihydro-1-(3-fluorophenylamino)-4-methyl-5-phenyl-1H-imidazole-2-thione] | > 47.3 | 5.5 (≈ 18.4 µM) | 226 | – | – | <1 | 8.6 | 47.3 (≈ 158 µM) | –
2 | Cc1[nH]c(=S)n(Nc2cccc(Cl)c2)c1-c1ccccc1 [Compound 9.01, 1-(3-Chlorophenylamino)-2,3-dihydro-4-methyl-5-phenyl-1H-imidazole-2-thione] | 2.6 (≈ 8.23 µM) | 2.8 (≈ 8.87 µM) | 215 to 217 | – | – | 8.4 | 7.6 | 21.5 (≈ 68.1 µM) | –
3 | Cc1[nH]c(=S)n(Nc2ccccc2Cl)c1-c1ccccc1 [Compound 9.02, 1-(2-Chlorophenylamino)-2,3-dihydro-4-methyl-5-phenyl-1H-imidazole-2-thione] | > 65 | 7.4 (≈ 23.4 µM) | 220 to 221 | – | – | <1 | 9.0 | 65 (≈ 206 µM) | –
4 | S=c1[nH]c2c(n1Nc1cccc(Cl)c1)CCCC2 [Compound 9.11, 1-(3-Chlorophenylamino)-2,3,4,5,6,7-hexahydro-1H-benzimidazole-2-thione] | > 34 | 13.1 (≈ 46.8 µM) | 148 | – | – | <1 | 2.6 | 34 (≈ 122 µM) | –
5 | Cc1[nH]c(=S)n(Nc2cccc([N+](=O)[O-])c2)c1-c1ccccc1 [Compound 9.17, 2,3-Dihydro-4-methyl-1-(3-nitrophenylamino)-5-phenyl-1H-imidazole-2-thione] | > 15.4 | 3.7 (≈ 11.3 µM) | 214 | – | – | <1 | 4.2 | 15.4 (≈ 47.2 µM) | –
6 | Cc1[nH]c(=S)n(Nc2ccccc2)c1-c1ccccc1 [Compound 9.12, 2,3-Dihydro-4-methyl-5-phenyl-1-(phenylamino)-1H-imidazole-2-thione] | > 14.7 | 5.2 (≈ 18.5 µM) | 224 to 226 | – | – | <1 | 2.8 | 14.7 (≈ 52.2 µM) | –
7 | Cc1ccc(Nn2c(-c3ccccc3)c(C)[nH]c2=S)cc1C [Compound 9.13, 2,3-Dihydro-1-(3,4-dimethylphenylamino)-4-methyl-5-phenyl-1H-imidazole-2-thione] | > 17.9 | 1.1 (≈ 3.55 µM) | 228 | – | – | <1 | 16.3 | 17.9 (≈ 57.8 µM) | –
8 | Cc1[nH]c(=S)n(Nc2cccc(Cl)c2)c1-c1cccc(Cl)c1 [Compound 9.07, 5-(3-Chlorophenyl)-1-(3-chlorophenylamino)-2,3-dihydro-4-methyl-1H-imidazole-2-thione] | 1.4 (≈ 4 µM) | 0.9 (≈ 2.57 µM) | 204 | – | – | 11.6 | 18.3 | 15.9 (≈ 45.4 µM) | –
9 | Cc1[nH]c(=S)n(Nc2cccc(Br)c2)c1-c1ccccc1 [Compound 9.14, 1-(3-Bromophenylamino)-2,3-dihydro-4-methyl-5-phenyl-1H-imidazole-2-thione] | > 17.1 | 1.6 (≈ 4.44 µM) | 190 | – | – | <1 | 10.5 | 17.1 (≈ 47.5 µM) | –

Now from value to compound, other results behind:

Row | IC50 (HIV-2 (ROD)) [µg/mL] | IC50 (HIV-1 (NL4.3 WT)) [µg/mL] | melting point [°C] | HIV-2 (ROD) IC50 (HIV-2 (ROD)) [µg/mL] | HIV-1 (NL4.3 WT) IC50 (HIV-1 (NL4.3 WT)) [µg/mL] | Compound | HIV-2 (ROD) SI (HIV-2 (ROD)) | HIV-1 (NL4.3 WT) SI (HIV-1 (NL4.3 WT)) | CC50 [1] [µg/mL] | cytotoxicity CC50 (MT-4 cells) [µg/mL]
10 | 0.5 (≈ 1.76 µM) | 0.5 (≈ 1.76 µM) | 218 | – | – | Cc1ncn(Nc2cccc(Cl)c2)c1-c1ccccc1 [Compound 13.01, 1-(3-Chlorophenylamino)-4-methyl-5-phenyl-1H-imidazole] | 6.9 | 6.0 | 3.25 (≈ 11.5 µM) | –
11 | > 20.7 | 0.6 (≈ 2.03 µM) | 206 | – | – | Cc1cccc(Nn2c(-c3ccccc3)c(C)[nH]c2=S)c1 [Compound 9.19, 2,3-Dihydro-4-methyl-1-(3-methylphenylamino)-5-phenyl-1H-imidazole-2-thione] | <1 | 32.3 | 20.7 (≈ 70.1 µM) | –
12 | – | – | – | >12.3 | 3.1 | COc1cccc(Nn2c(-c3ccccc3)c(C)[nH]c2=S)c1 [Compound 9.31] | <1 | 4.0 | – | 12.3
13 | > 65.3 | 0.3 (≈ 0.969 µM) | 240 to 242 | – | – | Cc1cc(C)cc(Nn2c(-c3ccccc3)c(C)[nH]c2=S)c1 [Compound 9.30, 2,3-Dihydro-1-(3,5-dimethylphenylamino)-4-methyl-5-phenyl-1H-imidazole-2-thione] | <1 | 241.9 | 65.3 (≈ 211 µM) | –
14 | > 19.8 | 3.9 (≈ 12.6 µM) | 202 to 204 | – | – | CCc1[nH]c(=S)n(Nc2cccc(C)c2)c1-c1ccccc1 [Compound 9.25, 2,3-Dihydro-4-ethyl-1-(3-methylphenylamino)-5-phenyl-1H-imidazole-2-thione] | <1 | 5.0 | 19.8 (≈ 64 µM) | –
15 | > 7.6 | 1.4 (≈ 5.32 µM) | 159 | – | – | Cc1cccc(Nn2cnc(C)c2-c2ccccc2)c1 [Compound 13.09, 4-Methyl-1-(3-methylphenylamino)-5-phenyl-1H-imidazole] | <1 | 5.6 | 7.6 (≈ 28.9 µM) | –
16 | – | – | – | >10.9 | 3.4 | Cc1ncn(Nc2cccc(Cl)c2)c1-c1cccc(C#N)c1 [Compound 13.15, 1-(3-Chlorphenylamino)-5-(3-cyanophenyl)-4-methyl-1H-imidazole] | <1 | 3.2 | – | 10.9
17 | – | – | – | >32.1 | 13.8 | Cc1[nH]c(=S)n(Nc2cccc(Cl)c2)c1-c1cccc(C#N)c1 [Compound 9.32, 1-(3-Chlorphenylamino)-5-(3-cyanophenyl)-2,3-dihydro-4-methyl-1H-imidazole-2-thione] | <1 | 2.3 | – | 32.1
